Among the data in US8912178B2, “mTOR selective kinase inhibitors” (Xcovery Holdings Company, LLC, priority 2010, dated 2014) are IC50 values, retold here.

In assay [1] the test system is U87-MG cells. Nature of the assay: Proliferation assay (Alamar blue), U87-MG. The format is cell-based. To be noted: Homo sapiens, U-87 MG, 48 h, 46-h incubation + 2-h Alamar blue, read-out: IC50 against proliferation of U87-MG cells. As to the method:
(§1) Cells (U87-MG, A375, HeLa, A549, MCF7, and MCF7 ADR-res) are cultured in DMEM with 10% fetal bovine serum and streptomycin/penicillin. Solutions of the test compounds (1 μL) are spotted onto a 96-well culture plate, followed by addition of cells (1×10^4) in 100 μL. After 46-h incubation, 10 μL of Alamar blue reagent is added to each well. After 2-h, the excitation/emission wavelengths at 544/590 nm are measured using Fluostar.
In general terms: Alamar Blue is a resazurin reagent that responds to reducing activity.

In assay [2] the test system is A549 cells. Kind of assay: Proliferation assay (Alamar blue), A549. The format is cell-based. As to conditions: Homo sapiens, 48 h; A549, 46-h incubation + 2-h Alamar blue; read-out: IC50 against proliferation of A549 cells. The method, then: as §1
Assay [3] deals with T1, PI3Kβ (Homo sapiens, UniProt P42338).
T1 construct: purchased Ambit Biosciences (contract assay)
Kind of assay: Kinase competition binding assay (Ambit Biosciences), PI3Kβ. To be noted: tested at Ambit Biosciences; read-out: IC50 against PI3Kβ. As to the method: (§2) Assays are performed as described in Fabian et al. (2005) Nature Biotechnology, vol. 23, p. 329 and in Karaman et al. (2008) Nature Biotechnology, vol. 26, p. 127.
(§3) Kinase assays. For most assays, kinase-tagged T7 phage strains are grown in parallel in 24-well blocks in an E. coli host derived from the BL21 strain. E. coli are grown to log-phase and are infected with T7 phage from a frozen stock (multiplicity of infection˜0.1) and are incubated with shaking at 32° C. until lysis (˜90 minutes). The lysates are centrifuged (6,000×g) and filtered ([…]) to remove cell debris. The remaining kinases are produced in HEK-293 cells and subsequently tagged with DNA for qPCR detection. Streptavidin-coated magnetic beads are treated with biotinylated small molecule ligands for 30 minutes at room temperature to generate affinity resins for kinase assays. The liganded beads are blocked with excess biotin and washed with blocking buffer (SeaBlock (Pierce), 1% BSA, 0.05% Tween 20, 1 mM DTT) to remove unbound ligand and to reduce non-specific phage binding. Binding reactions are assembled by combining kinases, liganded affinity beads, and test compounds in 1× binding buffer (20% SeaBlock, 0.17×PBS, 0.05% Tween 20, 6 mM DTT). Test compounds are prepared as 40× stocks in 100% DMSO and directly diluted into the assay. All reactions are performed in polypropylene 384-well plates in a final volume of 0.04 ml. The assay plates are incubated at room temperature with shaking for 1 hour and the affinity beads are washed with wash buffer (1×PBS, 0.05% Tween 20). The beads are then re-suspended in elution buffer (1×PBS, 0.05% Tween 20, 0.5 mM non-biotinylated affinity ligand) and are incubated at room temperature with shaking for 30 minutes. The kinase concentration in the eluates is measured by qPCR.
(§4) Compounds were tested using the above assay at Ambit Biosciences (San Diego, Calif., USA).

Assay [4] addresses T2, PI3Kα (Homo sapiens, UniProt P42336).
T2 construct: purchased Ambit Biosciences (contract assay)
Nature of the assay: Kinase competition binding assay (Ambit Biosciences), PI3Kα. As to conditions: tested at Ambit Biosciences; read-out: IC50 against PI3Kα. As to the method:
as §2, §3, §4

The target in assay [5] is T3, mTOR (Homo sapiens, UniProt P42345).
T3 construct: purchased Ambit Biosciences (contract assay)
Kind of assay: Kinase competition binding assay (Ambit Biosciences), mTOR. To be noted: tested at Ambit Biosciences; read-out: IC50 against mTOR. As to the method: as §2, §3, §4

Assay [6] has as its target T4, PI3Kδ (Homo sapiens, UniProt O00329).
T4 construct: purchased Ambit Biosciences (contract assay)
T4 sequence (O00329 1-1044): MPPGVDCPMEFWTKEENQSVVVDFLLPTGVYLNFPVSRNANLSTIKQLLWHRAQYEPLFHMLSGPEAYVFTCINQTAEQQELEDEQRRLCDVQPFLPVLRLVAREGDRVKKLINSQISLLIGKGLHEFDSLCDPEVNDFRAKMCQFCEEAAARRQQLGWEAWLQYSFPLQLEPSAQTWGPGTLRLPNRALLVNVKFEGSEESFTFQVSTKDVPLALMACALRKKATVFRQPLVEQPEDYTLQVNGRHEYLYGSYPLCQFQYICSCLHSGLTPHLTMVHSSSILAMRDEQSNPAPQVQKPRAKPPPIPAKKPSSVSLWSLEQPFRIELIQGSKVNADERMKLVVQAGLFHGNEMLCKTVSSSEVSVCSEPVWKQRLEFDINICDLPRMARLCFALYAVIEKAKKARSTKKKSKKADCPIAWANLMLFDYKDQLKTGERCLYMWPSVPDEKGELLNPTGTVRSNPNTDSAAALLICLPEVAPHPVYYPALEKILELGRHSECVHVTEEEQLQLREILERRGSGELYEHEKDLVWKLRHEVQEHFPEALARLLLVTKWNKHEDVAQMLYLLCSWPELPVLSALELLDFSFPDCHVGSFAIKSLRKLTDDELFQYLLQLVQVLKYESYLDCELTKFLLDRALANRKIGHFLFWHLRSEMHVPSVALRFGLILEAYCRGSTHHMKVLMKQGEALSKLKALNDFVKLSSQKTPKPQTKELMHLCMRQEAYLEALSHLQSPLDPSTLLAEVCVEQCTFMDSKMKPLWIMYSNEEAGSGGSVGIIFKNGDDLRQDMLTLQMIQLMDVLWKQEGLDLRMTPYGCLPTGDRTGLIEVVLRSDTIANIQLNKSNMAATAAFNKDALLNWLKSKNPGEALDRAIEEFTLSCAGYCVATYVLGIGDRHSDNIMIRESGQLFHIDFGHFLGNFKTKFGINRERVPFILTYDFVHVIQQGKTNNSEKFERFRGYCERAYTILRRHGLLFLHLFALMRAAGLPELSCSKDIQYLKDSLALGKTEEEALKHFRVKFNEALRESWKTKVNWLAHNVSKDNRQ
Kind of assay: Kinase competition binding assay (Ambit Biosciences), PI3Kδ. As to conditions: tested at Ambit Biosciences; read-out: IC50 against PI3Kδ. As to the method: as §2, §3, §4

Assay [7] addresses T5, PI3Kγ (Homo sapiens, UniProt P48736).
T5 construct: purchased Ambit Biosciences (contract assay)
Nature of the assay: Kinase competition binding assay (Ambit Biosciences), PI3Kγ. As to conditions: tested at Ambit Biosciences; read-out: IC50 against PI3Kγ. The method, then: as §2, §3, §4

Structures are written as SMILES. Where only a bound is given, the exact number is not on record here.

T1 sequence (P42338 whole entry): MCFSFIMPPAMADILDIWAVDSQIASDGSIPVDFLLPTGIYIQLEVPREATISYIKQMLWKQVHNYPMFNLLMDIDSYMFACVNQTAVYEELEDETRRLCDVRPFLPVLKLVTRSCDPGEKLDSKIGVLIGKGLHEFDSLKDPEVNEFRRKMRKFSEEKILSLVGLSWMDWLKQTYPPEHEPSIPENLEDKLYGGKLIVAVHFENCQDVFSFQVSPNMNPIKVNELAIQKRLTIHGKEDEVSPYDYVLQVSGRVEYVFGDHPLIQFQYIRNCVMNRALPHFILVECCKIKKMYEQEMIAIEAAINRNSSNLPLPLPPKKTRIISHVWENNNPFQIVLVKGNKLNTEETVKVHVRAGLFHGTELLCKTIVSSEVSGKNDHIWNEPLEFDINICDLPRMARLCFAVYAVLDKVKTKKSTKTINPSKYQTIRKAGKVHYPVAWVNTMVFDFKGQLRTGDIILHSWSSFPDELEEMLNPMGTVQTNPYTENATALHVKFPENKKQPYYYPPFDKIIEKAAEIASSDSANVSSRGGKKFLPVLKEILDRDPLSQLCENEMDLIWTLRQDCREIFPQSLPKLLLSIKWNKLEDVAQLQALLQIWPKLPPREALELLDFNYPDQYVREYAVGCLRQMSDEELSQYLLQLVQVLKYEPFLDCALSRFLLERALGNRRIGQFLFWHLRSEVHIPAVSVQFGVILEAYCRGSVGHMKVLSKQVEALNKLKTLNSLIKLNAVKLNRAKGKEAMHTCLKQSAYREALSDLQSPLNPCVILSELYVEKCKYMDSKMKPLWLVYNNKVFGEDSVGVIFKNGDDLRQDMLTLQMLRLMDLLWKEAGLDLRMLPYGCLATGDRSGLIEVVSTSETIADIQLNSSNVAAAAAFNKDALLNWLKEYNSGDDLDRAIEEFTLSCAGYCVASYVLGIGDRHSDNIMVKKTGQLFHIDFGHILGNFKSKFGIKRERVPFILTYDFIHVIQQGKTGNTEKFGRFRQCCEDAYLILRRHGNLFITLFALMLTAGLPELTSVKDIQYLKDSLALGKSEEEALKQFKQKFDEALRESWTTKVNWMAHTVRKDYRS
T5 sequence (P48736 whole entry): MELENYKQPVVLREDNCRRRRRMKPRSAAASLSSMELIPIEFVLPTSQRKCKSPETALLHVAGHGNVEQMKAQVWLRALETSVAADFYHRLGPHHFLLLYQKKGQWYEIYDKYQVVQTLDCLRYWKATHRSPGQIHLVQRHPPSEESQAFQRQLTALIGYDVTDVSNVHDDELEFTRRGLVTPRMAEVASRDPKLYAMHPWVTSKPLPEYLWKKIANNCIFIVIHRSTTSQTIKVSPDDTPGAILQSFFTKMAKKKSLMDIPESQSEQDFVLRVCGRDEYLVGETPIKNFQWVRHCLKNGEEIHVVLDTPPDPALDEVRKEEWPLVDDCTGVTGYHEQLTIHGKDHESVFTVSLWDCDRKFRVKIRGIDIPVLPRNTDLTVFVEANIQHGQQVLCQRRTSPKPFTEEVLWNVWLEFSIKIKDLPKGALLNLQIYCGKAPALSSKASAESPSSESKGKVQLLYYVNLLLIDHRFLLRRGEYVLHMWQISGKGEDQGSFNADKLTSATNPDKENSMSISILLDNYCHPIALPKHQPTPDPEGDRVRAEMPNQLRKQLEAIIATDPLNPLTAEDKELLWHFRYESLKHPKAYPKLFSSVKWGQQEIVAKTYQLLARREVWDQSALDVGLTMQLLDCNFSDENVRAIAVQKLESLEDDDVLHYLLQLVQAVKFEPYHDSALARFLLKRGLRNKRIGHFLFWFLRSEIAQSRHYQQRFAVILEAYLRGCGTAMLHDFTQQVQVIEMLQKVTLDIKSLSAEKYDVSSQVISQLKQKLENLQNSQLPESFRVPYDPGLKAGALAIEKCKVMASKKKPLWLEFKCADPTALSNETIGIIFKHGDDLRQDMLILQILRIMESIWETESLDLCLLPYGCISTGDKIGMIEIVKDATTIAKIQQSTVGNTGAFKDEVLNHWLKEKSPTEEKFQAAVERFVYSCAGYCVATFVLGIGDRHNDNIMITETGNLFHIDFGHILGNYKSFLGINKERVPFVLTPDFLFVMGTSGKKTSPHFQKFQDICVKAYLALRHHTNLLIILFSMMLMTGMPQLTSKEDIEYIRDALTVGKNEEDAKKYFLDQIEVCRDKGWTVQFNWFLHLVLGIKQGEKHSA
T2 sequence (P42336 whole entry): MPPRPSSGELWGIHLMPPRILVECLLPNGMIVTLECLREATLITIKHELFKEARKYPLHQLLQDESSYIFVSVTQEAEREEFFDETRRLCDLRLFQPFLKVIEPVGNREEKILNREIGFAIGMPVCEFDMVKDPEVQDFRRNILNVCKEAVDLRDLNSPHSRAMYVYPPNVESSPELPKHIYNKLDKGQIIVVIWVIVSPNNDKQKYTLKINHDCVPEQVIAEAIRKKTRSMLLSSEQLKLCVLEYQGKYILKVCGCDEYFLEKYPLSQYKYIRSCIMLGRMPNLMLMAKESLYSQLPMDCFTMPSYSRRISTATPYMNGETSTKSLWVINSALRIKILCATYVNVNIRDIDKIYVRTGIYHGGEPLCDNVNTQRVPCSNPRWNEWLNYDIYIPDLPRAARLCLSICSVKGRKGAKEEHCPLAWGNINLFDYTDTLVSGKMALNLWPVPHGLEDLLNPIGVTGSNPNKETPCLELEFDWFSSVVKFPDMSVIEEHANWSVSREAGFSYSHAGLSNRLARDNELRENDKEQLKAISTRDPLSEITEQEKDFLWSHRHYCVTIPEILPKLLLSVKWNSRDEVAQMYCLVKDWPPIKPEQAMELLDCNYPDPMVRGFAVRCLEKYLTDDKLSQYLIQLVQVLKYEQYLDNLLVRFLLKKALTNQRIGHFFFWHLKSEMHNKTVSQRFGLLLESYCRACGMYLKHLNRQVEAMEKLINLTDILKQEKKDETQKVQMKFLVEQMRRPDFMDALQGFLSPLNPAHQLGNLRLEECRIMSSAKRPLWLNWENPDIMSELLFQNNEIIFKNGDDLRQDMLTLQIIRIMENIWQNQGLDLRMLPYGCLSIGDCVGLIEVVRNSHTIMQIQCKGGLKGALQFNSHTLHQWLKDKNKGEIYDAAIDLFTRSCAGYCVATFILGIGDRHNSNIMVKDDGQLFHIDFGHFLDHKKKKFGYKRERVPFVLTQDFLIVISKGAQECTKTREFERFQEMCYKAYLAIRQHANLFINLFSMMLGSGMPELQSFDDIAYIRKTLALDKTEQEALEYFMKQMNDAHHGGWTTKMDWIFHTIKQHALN

`CNC(=O)Nc1ccc(-c2nc(N3CCOCC3)nc3c2cnn3C2CCC(CO)CC2)cc1` (stereo not drawn) [Example 20, N-(4-{1-[4-(hydroxymethyl)cyclohexyl]-6-morpholin-4-ylpyrazolo[4,5-e]pyrimidin-4-yl}phenyl)(methylamino)carboxamide]: the IC50 in assay [1] and in assay [2] was under 1000 nM in each case.

In the case of `CCNC(=O)Nc1ccc(-c2nc(N3CCOCC3)nc3c2cnn3CC(C)(C)O)cc1` [Example 1, 1-ethyl-3-[4-[1-(2-hydroxy-2-methyl-propyl)-6-morpholino-pyrazolo[3,4-d]pyrimidin-4-yl]phenyl]urea], the IC50 in assay [1] is under 1000 nM; in assay [3], over 100 nM; in assay [4], over 100 nM; in assay [5] it was under 110 nM; in assay [6], over 100 nM; in assay [2], under 1000 nM. For the same compound, the IC50 in assay [7] is over 100 nM.

As to `CNC(=O)Nc1ccc(-c2nc(N3CCOCC3)nc3c2cnn3C2CCN(C(=O)OC)CC2)cc1` [Example 6, methyl 4-[4-[4-(methylcarbamoylamino)phenyl]-6-morpholino-pyrazolo[3,4-d]pyrimidin-1-yl]piperidine-1-carboxylate], the IC50 in assay [3] is over 100 nM; in assay [4] it was over 100 nM; in assay [5], under 110 nM; in assay [6] it was over 100 nM; in assay [7], over 100 nM.

In the case of `CNC(=O)Nc1ccc(-c2nc(N3CCOCC3)nc3c2cnn3C2CCN(C(=O)COC)CC2)cc1` [Example 11, 1-[4-[1-[1-(2-methoxyacetyl)-4-piperidyl]-6-morpholino-pyrazolo[3,4-d]pyrimidin-4-yl]phenyl]-3-methyl-urea], the IC50 in assay [1] and in assay [2] was under 1000 nM each time.

Consider `CNC(=O)Nc1ccc(-c2nc(N3CCOCC3)nc3c2cnn3C2CCCC2)cc1` [Example 24, N-[4-(1-cyclopentyl-6-morpholin-4-ylpyrazolo[4,5-e]pyrimidin-4-yl)phenyl](methylamino)carboxamide], for which the IC50 in assay [1] and in assay [2] was under 1000 nM each time.

For the compound `CNC(=O)Nc1ccc(-c2nc(N3CCOCC3)nc3c2cnn3C2CCC(O)CC2)cc1` (stereo not drawn) [Example 22, N-{4-[1-(4-hydroxycyclohexyl)-6-morpholin-4-ylpyrazolo[4,5-e]pyrimidin-4-yl]phenyl}(methylamino)carboxamide], the IC50 in assay [1] and in assay [2] was under 1000 nM each time.

`CNC(=O)Nc1ccc(-c2nc(N3CCOC[C@@H]3C)nc3c2cnn3CC(C)(C)O)cc1` [Example 16, N-{4-[6-((3S)-3-methylmorpholin-4-yl)-1-(2-hydroxy-2-methylpropyl)pyrazolo[4,5-e]pyrimidin-4-yl]phenyl}(methylamino)carboxamide]: the IC50 in assay [3] is over 100 nM; in assay [4], over 100 nM; in assay [5], under 110 nM; in assay [6] it was over 100 nM; in assay [7], over 100 nM.

`CNC(=O)Nc1ccc(-c2nc(N3CCOCC3)nc3c2cnn3CC(C)(C)O)cc1` [Example 2, 1-[4-[1-(2-hydroxy-2-methyl-propyl)-6-morpholino-pyrazolo[3,4-d]pyrimidin-4-yl]phenyl]-3-methyl-urea]: the IC50 in assay [1] was under 1000 nM; in assay [3], over 100 nM; in assay [4], over 100 nM; in assay [5], under 110 nM; in assay [6], over 100 nM; in assay [2] it was under 1000 nM. Besides, the IC50 in assay [7] is over 100 nM.

Turning to `CNC(=O)Nc1ccc(-c2nc(N3CCOC[C@H]3C)nc3c2cnn3CC(C)(C)O)cc1` [Example 17, N-{4-[6-((3R)-3-methylmorpholin-4-yl)-1-(2-hydroxy-2-methylpropyl)pyrazolo[4,5-e]pyrimidin-4-yl]phenyl}(methylamino)carboxamide], the IC50 in assay [3] is over 100 nM; in assay [4], over 100 nM; in assay [5] it was under 110 nM; in assay [6], over 100 nM; in assay [7], over 100 nM.

Take `CNC(=O)Nc1ccc(-c2nc(N3CCOCC3)nc3c2cnn3C2CCN(C(=O)[C@H](C)O)CC2)cc1` [Example 10, 1-[4-[1-[1-[(2S)-2-hydroxypropanoyl]-4-piperidyl]-6-morpholino-pyrazolo[3,4-d]pyrimidin-4-yl]phenyl]-3-methylurea]: the IC50 in assay [1] and in assay [2] was under 1000 nM each time.

Regarding `CNC(=O)Nc1ccc(-c2nc(N3CCOCC3)nc3c2cnn3C(C)C)cc1` [Example 3, 1-[4-(1-isopropyl-6-morpholino-pyrazolo[3,4-d]pyrimidin-4-yl)phenyl]-3-methyl-urea], the IC50 in assay [3] was over 100 nM; in assay [4], over 100 nM; in assay [5] it was under 110 nM; in assay [6], over 100 nM; in assay [7], over 100 nM.

`CNC(=O)Nc1ccc(-c2nc(N3CCOCC3)nc3c2cnn3C2CCN(C(=O)CO)CC2)cc1` [Example 9, 1-[4-[1-[1-(2-hydroxyacetyl)-4-piperidyl]-6-morpholino-pyrazolo[3,4-d]pyrimidin-4-yl]phenyl]-3-methyl-urea]: the IC50 in assay [1] and in assay [2] was under 1000 nM throughout.

Turning to `CNC(=O)Nc1ccc(-c2nc(N3CCOC[C@@H]3C)nc3c2cnn3C2CCOCC2)cc1` [Example 15, 1-methyl-3-[4-[6-[(3S)-3-methylmorpholin-4-yl]-1-tetrahydropyran-4-yl-pyrazolo[3,4-d]pyrimidin-4-yl]phenyl]urea], the IC50 in assay [1] was under 1000 nM; in assay [3], over 100 nM; in assay [4], over 100 nM; in assay [5] it was under 110 nM; in assay [6], over 100 nM; in assay [2] it was under 1000 nM. In addition, in assay [7], the IC50 is over 100 nM.

For the compound `CNC(=O)Nc1ccc(-c2nc(N3CCOC[C@@H]3C)nc3c2cnn3C2CCCC2)cc1` [Example 25, N-{4-[6-((3S)-3-methylmorpholin-4-yl)-1-cyclopentylpyrazolo[4,5-e]pyrimidin-4-yl]phenyl}(methylamino)carboxamide], the IC50 in assay [1] and in assay [2] was under 1000 nM in each case.

Regarding `CNC(=O)Nc1ccc(-c2nc(N3CC4CCC(C3)O4)nc3c2cnn3C2CCOCC2)cc1` [Example 14, 1-methyl-3-[4-[6-(8-oxa-3-azabicyclo[3.2.1]octan-3-yl)-1-tetrahydropyran-4-yl-pyrazolo[3,4-d]pyrimidin-4-yl]phenyl]urea], the IC50 in assay [1] and in assay [2] was under 1000 nM in each case.
